Values of other authors, collected in US10913844B2, “Plasticized thermoset resin, and associated cured resin, method of curing, and article comprising cured resin” (The University of Massachusetts, priority 2016, dated 2021).

Conditions: solvent furfural

For `C1N2CN3CN1CN(C2)C3` [HMTA, hexamethylenetetramine], the “solubility of HMTA in furfural” value is given as “less than two”.
